In ChEMBL document CHEMBL5291721, “A preclinical secondary pharmacology resource illuminates target-adverse drug reaction associations of marketed drugs” (Nat Commun, 2023):

Legend:
Histamine H2 receptor = Histamine H2 receptor (Homo sapiens, UniProt P25021); format: functional, cell-based
[1] = molecular target: cGMP-inhibited 3',5'-cyclic phosphodiesterase 3A (Homo sapiens, UniProt Q14432); format: functional
[2] = molecular target: Beta-1 adrenergic receptor (Homo sapiens, UniProt P08588); format: functional
Chain of Beta-1 adrenergic receptor (P08588 whole entry): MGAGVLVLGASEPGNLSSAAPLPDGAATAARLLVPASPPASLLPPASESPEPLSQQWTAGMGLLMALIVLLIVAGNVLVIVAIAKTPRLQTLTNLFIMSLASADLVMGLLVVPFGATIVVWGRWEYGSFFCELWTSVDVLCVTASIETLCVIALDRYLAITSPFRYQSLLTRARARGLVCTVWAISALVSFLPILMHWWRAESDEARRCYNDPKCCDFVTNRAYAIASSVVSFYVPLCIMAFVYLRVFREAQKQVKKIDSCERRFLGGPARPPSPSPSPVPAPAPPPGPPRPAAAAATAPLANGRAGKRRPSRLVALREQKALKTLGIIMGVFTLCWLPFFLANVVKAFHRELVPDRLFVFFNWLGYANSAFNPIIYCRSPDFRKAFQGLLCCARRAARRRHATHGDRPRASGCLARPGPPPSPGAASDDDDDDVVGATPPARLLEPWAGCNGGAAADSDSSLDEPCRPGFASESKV

[3] = molecular target: Growth hormone secretagogue receptor type 1 (Homo sapiens, UniProt Q92847)
Chain of Growth hormone secretagogue receptor type 1 (Q92847 whole entry): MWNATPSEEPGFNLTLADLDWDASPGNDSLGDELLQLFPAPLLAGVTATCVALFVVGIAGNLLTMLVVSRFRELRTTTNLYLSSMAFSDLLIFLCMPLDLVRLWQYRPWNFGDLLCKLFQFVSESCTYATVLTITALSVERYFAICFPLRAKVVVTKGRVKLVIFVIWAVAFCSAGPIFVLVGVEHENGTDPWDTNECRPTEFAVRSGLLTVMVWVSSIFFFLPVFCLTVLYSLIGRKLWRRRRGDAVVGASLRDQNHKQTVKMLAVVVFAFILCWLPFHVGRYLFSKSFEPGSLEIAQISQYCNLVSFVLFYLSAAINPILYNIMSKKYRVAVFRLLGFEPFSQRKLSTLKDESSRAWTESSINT

[4] = molecular target: T1, Alpha-2A adrenergic receptor (Homo sapiens, UniProt P08913); format: functional, cell-based
T1 sequence (P08913 whole entry): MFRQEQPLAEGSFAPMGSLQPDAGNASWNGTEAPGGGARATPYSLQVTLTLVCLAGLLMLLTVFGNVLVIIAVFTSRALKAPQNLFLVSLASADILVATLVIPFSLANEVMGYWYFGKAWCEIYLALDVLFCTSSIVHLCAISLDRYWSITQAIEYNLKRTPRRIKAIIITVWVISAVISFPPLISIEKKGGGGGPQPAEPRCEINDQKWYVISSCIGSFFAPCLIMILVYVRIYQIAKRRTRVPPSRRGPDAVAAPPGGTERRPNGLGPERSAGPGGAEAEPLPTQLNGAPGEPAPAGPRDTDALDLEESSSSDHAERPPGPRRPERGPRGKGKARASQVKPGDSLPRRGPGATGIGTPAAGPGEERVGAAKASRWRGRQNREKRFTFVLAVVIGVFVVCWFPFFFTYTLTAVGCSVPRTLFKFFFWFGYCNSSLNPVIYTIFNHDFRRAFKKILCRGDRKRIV

[5] = molecular target: T1, Alpha-2A adrenergic receptor; format: functional, cell-based; remark: listed apart in the source
[6] = molecular target: Kappa-type opioid receptor (Homo sapiens, UniProt P41145)
Chain of Kappa-type opioid receptor (P41145 whole entry): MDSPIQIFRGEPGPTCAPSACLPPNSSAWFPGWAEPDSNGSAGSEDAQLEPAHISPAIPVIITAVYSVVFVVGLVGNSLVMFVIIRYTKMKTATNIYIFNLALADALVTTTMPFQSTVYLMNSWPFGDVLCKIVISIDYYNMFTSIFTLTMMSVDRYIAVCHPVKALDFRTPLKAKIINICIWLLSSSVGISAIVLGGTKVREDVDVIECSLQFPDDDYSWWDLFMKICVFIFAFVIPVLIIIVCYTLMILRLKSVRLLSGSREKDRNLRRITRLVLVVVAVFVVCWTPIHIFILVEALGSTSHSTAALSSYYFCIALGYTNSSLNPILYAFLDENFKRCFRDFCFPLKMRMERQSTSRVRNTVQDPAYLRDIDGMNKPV

[7] = molecular target: T2, Cholecystokinin receptor type A (Homo sapiens, UniProt P32238)
T2 sequence (P32238 whole entry): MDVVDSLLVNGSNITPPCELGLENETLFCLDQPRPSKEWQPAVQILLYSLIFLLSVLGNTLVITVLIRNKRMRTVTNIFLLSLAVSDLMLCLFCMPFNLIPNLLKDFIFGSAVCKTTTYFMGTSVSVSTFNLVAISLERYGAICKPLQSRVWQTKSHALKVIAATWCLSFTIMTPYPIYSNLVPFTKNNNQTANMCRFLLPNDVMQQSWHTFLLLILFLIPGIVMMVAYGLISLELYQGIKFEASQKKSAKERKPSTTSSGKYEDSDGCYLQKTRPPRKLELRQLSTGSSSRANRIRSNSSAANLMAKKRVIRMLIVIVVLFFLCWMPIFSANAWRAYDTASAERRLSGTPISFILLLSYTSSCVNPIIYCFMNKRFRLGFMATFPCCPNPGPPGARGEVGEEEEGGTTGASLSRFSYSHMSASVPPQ

B2 bradykinin receptor = molecular target: T3, B2 bradykinin receptor (Homo sapiens, UniProt P30411)
T3 sequence (P30411 whole entry): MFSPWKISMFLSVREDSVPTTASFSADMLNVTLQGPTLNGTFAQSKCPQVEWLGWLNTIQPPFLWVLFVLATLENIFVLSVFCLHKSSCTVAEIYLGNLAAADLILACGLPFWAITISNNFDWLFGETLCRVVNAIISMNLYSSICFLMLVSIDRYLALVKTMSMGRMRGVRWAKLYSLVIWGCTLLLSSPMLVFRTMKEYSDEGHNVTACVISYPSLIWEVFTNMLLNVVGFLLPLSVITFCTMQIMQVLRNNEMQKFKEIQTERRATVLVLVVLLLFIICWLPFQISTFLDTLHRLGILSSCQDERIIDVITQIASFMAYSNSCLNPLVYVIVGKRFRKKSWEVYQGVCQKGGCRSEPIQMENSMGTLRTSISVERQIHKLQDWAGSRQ

[8] = molecular target: Glutamate receptor ionotropic, NMDA 1 (Rattus norvegicus, UniProt P35439)
Vasopressin V2 receptor = Vasopressin V2 receptor (Homo sapiens, UniProt P30518)
Chain of Vasopressin V2 receptor (P30518 whole entry): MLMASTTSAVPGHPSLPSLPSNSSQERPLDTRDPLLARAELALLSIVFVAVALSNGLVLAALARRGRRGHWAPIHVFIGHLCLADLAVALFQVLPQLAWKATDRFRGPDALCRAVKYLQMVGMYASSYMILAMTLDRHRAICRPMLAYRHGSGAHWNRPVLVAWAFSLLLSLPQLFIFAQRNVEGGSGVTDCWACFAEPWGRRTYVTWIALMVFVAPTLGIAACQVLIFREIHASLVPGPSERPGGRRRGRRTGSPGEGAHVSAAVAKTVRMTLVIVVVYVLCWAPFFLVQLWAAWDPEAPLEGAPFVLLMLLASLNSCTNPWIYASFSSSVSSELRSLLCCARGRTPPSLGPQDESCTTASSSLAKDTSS

D(1A) dopamine receptor = D(1A) dopamine receptor (Homo sapiens, UniProt P21728); format: functional, cell-based
Chain of D(1A) dopamine receptor (P21728 whole entry): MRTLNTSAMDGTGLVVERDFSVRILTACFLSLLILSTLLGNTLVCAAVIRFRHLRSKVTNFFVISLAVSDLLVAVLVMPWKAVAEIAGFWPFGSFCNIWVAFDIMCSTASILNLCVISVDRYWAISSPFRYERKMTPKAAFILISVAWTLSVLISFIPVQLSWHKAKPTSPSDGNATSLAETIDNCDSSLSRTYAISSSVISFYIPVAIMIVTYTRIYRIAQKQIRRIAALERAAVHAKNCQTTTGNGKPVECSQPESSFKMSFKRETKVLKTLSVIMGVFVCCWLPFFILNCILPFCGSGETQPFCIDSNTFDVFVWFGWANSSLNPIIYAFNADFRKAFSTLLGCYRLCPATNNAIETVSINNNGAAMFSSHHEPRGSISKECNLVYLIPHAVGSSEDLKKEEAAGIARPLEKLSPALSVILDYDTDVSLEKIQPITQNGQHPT

[9] = molecular target: T4, Amine oxidase [flavin-containing] A (Homo sapiens, UniProt P21397); format: functional
T4 sequence (P21397 whole entry): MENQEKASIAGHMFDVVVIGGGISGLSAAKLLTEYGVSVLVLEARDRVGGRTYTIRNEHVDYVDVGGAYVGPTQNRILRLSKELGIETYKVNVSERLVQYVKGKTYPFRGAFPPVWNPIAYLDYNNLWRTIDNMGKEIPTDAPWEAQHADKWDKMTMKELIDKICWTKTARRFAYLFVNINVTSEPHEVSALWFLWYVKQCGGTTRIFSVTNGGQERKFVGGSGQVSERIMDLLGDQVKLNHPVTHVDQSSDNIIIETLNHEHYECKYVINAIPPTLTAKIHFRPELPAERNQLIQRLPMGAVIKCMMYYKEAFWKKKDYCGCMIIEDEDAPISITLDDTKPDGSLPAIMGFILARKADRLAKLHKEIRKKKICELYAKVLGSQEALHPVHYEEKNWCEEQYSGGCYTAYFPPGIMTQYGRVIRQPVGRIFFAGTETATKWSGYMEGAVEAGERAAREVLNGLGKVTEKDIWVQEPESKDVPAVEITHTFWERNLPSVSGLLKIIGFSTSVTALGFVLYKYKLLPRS

[10] = molecular target: Gamma-aminobutyric acid receptor subunit alpha-1 (Rattus norvegicus, UniProt P62813)
Chain of Gamma-aminobutyric acid receptor subunit alpha-1 (P62813 whole entry): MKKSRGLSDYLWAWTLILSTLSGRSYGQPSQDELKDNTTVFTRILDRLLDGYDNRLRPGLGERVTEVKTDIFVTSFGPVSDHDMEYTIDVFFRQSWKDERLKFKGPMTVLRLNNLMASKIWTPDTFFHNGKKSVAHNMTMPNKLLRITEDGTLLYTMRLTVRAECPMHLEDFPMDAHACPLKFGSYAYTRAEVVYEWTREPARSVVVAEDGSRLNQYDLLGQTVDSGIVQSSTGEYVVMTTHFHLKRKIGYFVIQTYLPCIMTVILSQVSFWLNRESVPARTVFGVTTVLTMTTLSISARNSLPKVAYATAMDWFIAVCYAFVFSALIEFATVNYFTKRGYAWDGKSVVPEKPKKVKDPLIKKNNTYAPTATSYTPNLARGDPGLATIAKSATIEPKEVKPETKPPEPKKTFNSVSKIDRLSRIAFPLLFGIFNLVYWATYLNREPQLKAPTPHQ
Note: assay procedure not described here.

Chain of Histamine H2 receptor (P25021 whole entry): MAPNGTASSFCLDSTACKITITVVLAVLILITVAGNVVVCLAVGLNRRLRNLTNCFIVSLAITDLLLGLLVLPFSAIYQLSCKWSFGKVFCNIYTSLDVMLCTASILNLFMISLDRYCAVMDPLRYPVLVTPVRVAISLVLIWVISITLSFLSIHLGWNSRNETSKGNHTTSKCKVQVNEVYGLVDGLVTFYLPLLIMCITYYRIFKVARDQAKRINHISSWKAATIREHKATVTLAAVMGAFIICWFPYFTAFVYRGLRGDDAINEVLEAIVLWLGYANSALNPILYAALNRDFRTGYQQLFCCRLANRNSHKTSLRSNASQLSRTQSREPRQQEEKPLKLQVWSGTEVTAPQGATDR
Chain of cGMP-inhibited 3',5'-cyclic phosphodiesterase 3A (Q14432 whole entry): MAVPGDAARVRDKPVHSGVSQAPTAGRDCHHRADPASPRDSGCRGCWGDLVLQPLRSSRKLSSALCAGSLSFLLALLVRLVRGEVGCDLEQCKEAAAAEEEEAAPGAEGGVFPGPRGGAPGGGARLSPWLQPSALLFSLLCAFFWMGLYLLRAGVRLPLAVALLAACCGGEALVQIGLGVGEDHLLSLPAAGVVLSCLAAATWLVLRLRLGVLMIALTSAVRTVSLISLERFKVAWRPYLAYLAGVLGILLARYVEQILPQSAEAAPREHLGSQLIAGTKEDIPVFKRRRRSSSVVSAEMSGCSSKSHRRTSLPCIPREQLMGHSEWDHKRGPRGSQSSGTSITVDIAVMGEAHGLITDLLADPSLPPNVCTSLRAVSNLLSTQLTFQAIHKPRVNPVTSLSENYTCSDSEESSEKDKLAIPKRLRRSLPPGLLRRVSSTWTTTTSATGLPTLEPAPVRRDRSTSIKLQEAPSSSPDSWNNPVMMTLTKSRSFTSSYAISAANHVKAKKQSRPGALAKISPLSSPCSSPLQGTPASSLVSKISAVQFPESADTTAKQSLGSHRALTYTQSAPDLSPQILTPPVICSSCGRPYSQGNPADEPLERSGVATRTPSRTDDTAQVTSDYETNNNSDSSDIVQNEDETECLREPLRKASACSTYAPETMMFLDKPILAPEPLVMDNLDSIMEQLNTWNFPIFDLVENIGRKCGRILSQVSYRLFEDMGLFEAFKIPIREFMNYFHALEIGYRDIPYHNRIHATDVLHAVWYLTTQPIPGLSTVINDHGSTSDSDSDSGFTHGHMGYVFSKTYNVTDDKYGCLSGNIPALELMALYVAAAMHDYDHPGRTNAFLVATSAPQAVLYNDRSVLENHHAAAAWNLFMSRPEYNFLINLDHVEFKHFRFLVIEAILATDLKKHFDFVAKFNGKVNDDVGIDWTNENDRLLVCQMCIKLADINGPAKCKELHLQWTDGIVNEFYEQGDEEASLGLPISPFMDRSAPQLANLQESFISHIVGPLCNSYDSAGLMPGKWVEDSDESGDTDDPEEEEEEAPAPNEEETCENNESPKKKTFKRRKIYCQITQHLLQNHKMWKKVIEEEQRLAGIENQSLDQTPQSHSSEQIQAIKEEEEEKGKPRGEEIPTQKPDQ

In the case of `NS(=O)(=O)c1cc(C(=O)O)cc(N2CCCC2)c1Oc1ccccc1` [PIRETANIDE], the AC50 (Histamine H2 receptor) is reported as > 30 µM, the AC50 [1] is reported as > 30 µM and the AC50 [2] is reported as > 30 µM. The AC50 [3] was > 30 µM, the AC50 [4] was > 30 µM and the AC50 [5] was > 30 µM. For the same compound, the AC50 [6] was > 30 µM, the AC50 [7] was > 30 µM and the AC50 (B2 bradykinin receptor) was > 30 µM. The AC50 [8] was > 30 µM, the AC50 (Vasopressin V2 receptor) was > 30 µM and the AC50 (D(1A) dopamine receptor) was > 30 µM. For the same compound, the AC50 [9] was > 30 µM.
In the case of `O=C1c2c(O)cccc2Cc2cccc(O)c21` [ANTHRALIN], the AC50 [10] is reported as > 3 µM.
In the case of `COC(=O)C1=C(C)NC(C)=C(C(=O)O[C@H]2CCN(Cc3ccccc3)C2)[C@H]1c1cccc([N+](=O)[O-])c1` [BARNIDIPINE], the AC50 [10] is reported as > 30 µM.
For `O=C(NC(Cc1cc(=O)[nH]c2ccccc12)C(=O)O)c1ccc(Cl)cc1` (configuration not stated) [REBAMIPIDE], the AC50 [10] was > 30 µM.
In the case of `CO[C@H]1[C@@H](O)C[C@H](O[C@H]2[C@@H](O)C[C@H](O[C@H]3[C@@H](O)C[C@H](O[C@H]4CC[C@@]5(C)[C@H](CC[C@@H]6[C@@H]5C[C@@H](O)[C@]5(C)[C@@H](C7=CC(=O)OC7)CC[C@]65O)C4)O[C@@H]3C)O[C@@H]2C)O[C@@H]1C` [METILDIGOXIN], the AC50 [10] is reported as > 30 µM.
For `C#C[C@]1(O)CC[C@H]2[C@@H]3CCc4cc(OC)ccc4[C@H]3CC[C@@]21C` [MESTRANOL], the AC50 (Histamine H2 receptor) was > 30 µM, the AC50 [1] was > 30 µM and the AC50 [2] was > 10 µM. The AC50 [3] was > 10 µM, the AC50 [4] was > 10 µM and the AC50 [5] was > 10 µM. For the same compound, the AC50 [6] was > 10 µM, the AC50 [7] was > 10 µM and the AC50 (B2 bradykinin receptor) was > 10 µM. The AC50 [8] was > 10 µM, the AC50 (Vasopressin V2 receptor) was > 10 µM and the AC50 (D(1A) dopamine receptor) was > 10 µM. The AC50 [9] was > 30 µM.
For `OCCN1CCN(CC/C=C2/c3ccccc3Sc3ccc(Cl)cc32)CC1` [ZUCLOPENTHIXOL], the AC50 (Histamine H2 receptor) was > 10 µM, the AC50 [1] was > 30 µM and the AC50 [2] was > 10 µM. For the same compound, the AC50 [3] was > 10 µM, the AC50 [4] was 7.3 µM and the AC50 [5] was > 10 µM. The AC50 [6] was 1.94 µM, the AC50 [7] was > 10 µM and the AC50 (B2 bradykinin receptor) was > 10 µM. For the same compound, the AC50 [8] was > 10 µM, the AC50 (Vasopressin V2 receptor) was > 10 µM and the AC50 (D(1A) dopamine receptor) was > 10 µM. For the same compound, the AC50 [9] was > 10 µM.
With `O=C(O)c1cc(O)c2c3nc4ccccc4oc-3cc(=O)c2n1` [PIRENOXINE] the AC50 (Histamine H2 receptor) was > 30 µM, the AC50 [1] was > 30 µM and the AC50 [2] was > 30 µM. The AC50 [3] was > 30 µM, the AC50 [4] was > 30 µM and the AC50 [5] was > 30 µM. The AC50 [6] was > 30 µM, the AC50 [7] was 5.1 µM and the AC50 (B2 bradykinin receptor) was > 30 µM. The AC50 [8] was > 30 µM, the AC50 (Vasopressin V2 receptor) was > 30 µM and the AC50 (D(1A) dopamine receptor) was > 30 µM. It also gave an AC50 [9] of 2.2 µM.
`Cc1nnc(SCC2=C(C(=O)O)N3C(=O)[C@@H](NC(=O)Cn4cc(Cl)c(=O)c(Cl)c4)[C@H]3SC2)s1` [CEFAZEDONE] was tested, and the AC50 [10] was > 30 µM.
`Nc1nc(N)nc(Nc2ccc([As]3SCC(CO)S3)cc2)n1` (configuration not stated) [MELARSOPROL] gave an AC50 [10] of 21 µM.
`CCC(=O)O[C@@H]1CC(=O)O[C@H](C)C/C=C/C=C/[C@H](OC(C)=O)[C@H](C)C[C@H](CC=O)[C@H](O[C@@H]2O[C@H](C)[C@@H](O[C@H]3C[C@@](C)(OC(C)=O)[C@@H](OC(=O)CC)[C@H](C)O3)[C@H](N(C)C)[C@H]2O)[C@H]1OC` [MIOCAMYCIN] was tested, and the AC50 [10] was > 30 µM.
For `O=c1oc2ccccc2c(O)c1Cc1c(O)c2ccccc2oc1=O` [DICUMAROL], the AC50 (Histamine H2 receptor) was > 10 µM, the AC50 [1] was > 10 µM and the AC50 [2] was > 10 µM. The AC50 [3] was > 10 µM, the AC50 [4] was > 10 µM and the AC50 [5] was > 10 µM. The AC50 [6] was > 10 µM, the AC50 [7] was > 10 µM and the AC50 (B2 bradykinin receptor) was > 10 µM. For the same compound, the AC50 [8] was > 10 µM, the AC50 (Vasopressin V2 receptor) was > 10 µM and the AC50 (D(1A) dopamine receptor) was > 10 µM. The AC50 [9] was > 10 µM.
In the case of `O=C(CCCN1CC=C(n2c(=O)[nH]c3ccccc32)CC1)c1ccc(F)cc1` [DROPERIDOL], the AC50 [10] is reported as > 30 µM.
For `CNC(=O)C[C@@H](N)C(=O)N[C@@H](C(=O)N[C@@H]1C(=O)N2[C@@H]1SC(C)(C)[C@@H]2C(=O)O)c1ccc(O)cc1` [ASPOXICILLIN], the AC50 [10] was > 30 µM.
`N=C(N)c1ccc2cc(OC(=O)c3ccc(N=C(N)N)cc3)ccc2c1` [NAFAMOSTAT] was tested, and the AC50 (Histamine H2 receptor) was > 30 µM, the AC50 [1] was > 30 µM and the AC50 [2] was > 30 µM. For the same compound, the AC50 [3] was 21 µM, the AC50 [4] was > 30 µM and the AC50 [5] was > 30 µM. For the same compound, the AC50 [6] was 17 µM, the AC50 [7] was > 30 µM and the AC50 (B2 bradykinin receptor) was > 30 µM. For the same compound, the AC50 [8] was 0.29 µM, the AC50 (Vasopressin V2 receptor) was > 30 µM and the AC50 (D(1A) dopamine receptor) was > 30 µM. It also gave an AC50 [9] of 14 µM.
